Experiments:
human tumor cell lines = assay: MTT proliferation assay, human tumor cell lines; type: cell-based; conditions: H23, H460, DU-145; IC50 comparison
Method: (§1) Human tumor cell lines were obtained from the American Type Culture Collection, the National Cancer Institute or from the originator as a kind gift. All cells were grown in RPMI 1640 (Invitrogen) medium containing 10% fetal bovine serum and 2 mM L-glutamine.
(§2) Logarithmically growing cells cultured in T75 flasks (Falcon) were harvested and inoculated into 96 well microtiter plates in 100 μL at plating densities ranging from 2,000 to 5,000 cells/well depending on the doubling time of individual cell lines. After cell inoculation, the microtiter plates are incubated at 37° C., 5% CO2, 95% air and 100% relative humidity for 24 h prior to addition of drug.
(§3) After 24 h, one plate of each cell line is developed with MTT (3-4,5-Dimethylthiazol-2-yl)-2,5-diphenyltetrazolium bromide, yellow), which is reduced to purple formazan in the mitochondria of living cells. […] The absorbance of this colored solution can be quantified by measuring at a certain wavelength (usually between 500 and 600 nm) by a spectrophotometer. […] The d0 growth value for each cell line is later deducted from each of the readouts at termination of the experiment. Essentially the final readouts are normalized for baseline growth, which enables us direct deduction of growth inhibition parameters from the graphed data. […]
(§4) Two independent experiments were conducted and the IC50 concentrations calculated plus/minus standard deviation.

[1] = system: H23 (lung) tumor cell line; assay: MTT proliferation assay, H23; type: cell-based, human; conditions: FIG. 1A
Method: as §1, §2, §3, §4

[2] = system: H460 (lung) tumor cell line; assay: MTT proliferation assay, H460; type: cell-based, human; conditions: FIG. 1B
Method: as §1, §2, §3, §4

[3] = system: DU-145 (prostate) tumor cell line; assay: MTT proliferation assay, DU-145; type: cell-based, human; conditions: FIG. 1C
Method: as §1, §2, §3, §4

[4] = system: SF268 (glioblastoma) tumor cell line; assay: MTT proliferation assay, SF268; type: cell-based; conditions: Homo sapiens, SF-268, 120 h, 5 days
Method: as §1, §2, §3, §4

| IC50 values (range in words) [1] | IC50 values (range in words) [2] | IC50 values (range in words) [3] | IC50 [4] | Structure (SMILES) | potency compared with VMD in the same cell lines (human tumor cell lines) |
| --- | --- | --- | --- | --- | --- |
| high μM range | high μM range | high μM range | – | CN(C)CC[C@H](CSc1ccccc1)Nc1ccc(S(=O)(=O)NC(=O)c2ccc(N3CCN(Cc4ccccc4-c4ccc(Cl)cc4)CC3)cc2)cc1[N+](=O)[O-] [Abt-737] | at least two-order of magnitude less potent |
| – | – | – | 0.33 µM | O=C(O)c1ccc(N2CCN(CCCn3c4c(n[n+]3[O-])C(=O)c3ccccc3C4=O)CC2)cc1 [Compound 101] | – |

Reference: patent publication US8618110B2, “Compositions and methods for apoptosis modulators” (VM Discovery Inc., priority 2007, dated 2013)
